Test results: patent US9849197B2, “Switching-type fluorescent nanoparticle probe, and fluorescent molecular imaging method using same” (KYOTO UNIVERSITY, priority 2011, dated 2017)

Test: Change in fluorescence intensity of lactosome encapsulating fluorescent dye due to change in external environment 1
Format: physicochemical
Settings: lactosome encapsulating 20 mol % of the dye; for fluorescence intensity in the SDS solution: 5 wt % SDS 1:1, room temperature 30 minutes; for fluorescence intensity in the BSA solution: 5 wt % albumin (BSA) 1:1, room temperature 30 minutes; for fluorescence intensity in the plasma: plasma from male ddY mice 1:1, room temperature 30 minutes
Source text: In FIGS. 2(A) to 2(D), the horizontal axis represents wavelength and the vertical axis represents fluorescence intensity.

CC1(C)C(/C=C/C2=C(Cl)C(=C/C=C3/N(CCCCCC(=O)O)c4ccc5ccccc5c4C3(C)C)/CCC2)=[N+](CCO)c2ccc3ccccc3c21 [IC7-1]
recovered: fluorescence intensity in the SDS solution | fluorescence intensity in the BSA solution | fluorescence intensity in the plasma

CC1(C)C(/C=C/C=C/C=C/C=C2\N(CCCCS(=O)(=O)O)c3ccc4ccccc4c3C2(C)C)=[N+](CCCCS(=O)(=O)[O-])c2ccc3ccccc3c21 [ICG, indocyanine green]
recovered: fluorescence intensity in the SDS solution | fluorescence intensity in the BSA solution | fluorescence intensity in the plasma
